How the values were obtained:
[1] = biological target: T1, calcium independent cytosolic phospholipase A2/B (Cricetulus griseus, UniProt A0A3L7I2I8); assay: Phospholipase hydrolysis assays, format not specified; format: biochemical, Chinese hamster
T1 construct: purified from the cytosol of Chinese hamster ovary (CHO) cells; endogenous in cells; host or cells: CHO cells (cytosol; Mono P / heparin / size-exclusion fractions)
T1 sequence (A0A3L7I2I8 1-752 isoform A0A3L7I2I8-2): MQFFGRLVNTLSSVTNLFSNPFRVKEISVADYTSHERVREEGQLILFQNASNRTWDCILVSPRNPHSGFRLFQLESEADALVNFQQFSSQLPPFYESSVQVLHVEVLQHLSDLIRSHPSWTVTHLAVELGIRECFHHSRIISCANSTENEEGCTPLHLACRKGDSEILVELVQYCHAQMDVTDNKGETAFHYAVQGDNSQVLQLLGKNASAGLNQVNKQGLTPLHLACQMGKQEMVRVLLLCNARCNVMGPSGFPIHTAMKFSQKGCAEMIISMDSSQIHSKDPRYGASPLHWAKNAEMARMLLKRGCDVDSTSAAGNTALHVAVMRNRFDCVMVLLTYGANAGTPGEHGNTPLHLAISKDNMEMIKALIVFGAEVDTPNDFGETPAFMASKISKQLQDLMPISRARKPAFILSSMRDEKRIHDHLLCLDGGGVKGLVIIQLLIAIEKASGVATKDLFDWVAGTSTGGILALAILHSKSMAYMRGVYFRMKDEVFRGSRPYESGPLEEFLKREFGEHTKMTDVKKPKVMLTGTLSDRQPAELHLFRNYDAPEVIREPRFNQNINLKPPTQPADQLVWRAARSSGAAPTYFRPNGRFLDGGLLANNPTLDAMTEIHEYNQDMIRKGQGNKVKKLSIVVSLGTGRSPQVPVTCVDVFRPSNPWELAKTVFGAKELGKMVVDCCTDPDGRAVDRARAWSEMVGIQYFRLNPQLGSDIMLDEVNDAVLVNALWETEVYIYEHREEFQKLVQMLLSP
Description: 1. sn-2 Hydrolysis Assays
(§1) A) Liposome: The lipid, e.g. 1-palmitoyl-2-[^14C]arachidonyl-sn-glycero-3-phosphocholine (PAPC), 55 mCi/mmol, was dried under a stream of nitrogen and solubilized in ethanol. The assay buffer contained 100 mM Tris-HCl pH 7, 4 mM EDTA, 4 mM EGTA, 10% glycerol and 25 μM of labelled PAPC, where the volume of ethanol added was no more than 10% of the final assay volume. The reaction was incubated for 30 minutes at 37° C. and quenched by the addition of two volumes of heptane:isopropanol:0.5M sulfuric acid (105:20:1 v/v). Half of the organic was applied to a disposable silica gel column in a vacuum manifold positioned over a scintillation vial, and the free arachidonic was eluted by the addition of ethyl ether (1 ml). The level of radioactivity was measured by liquid scintillation.
B) Mixed Micelle Basic: The lipid was dried down as in (A) and to this was added the assay buffer consisting of 80 mM glycine pH 9, 5 mM CaCl2 or 5 mM EDTA, 10% or 70% glycerol and […] triton X-100. The mixture was then sonicated for 30-60 seconds at 4° C. to form mixed micelles.
C) Mixed Micelle Neutral: As for (B) except 100 mM Tris-HCl pH 7 was used instead of glycine as the buffer.
Sn-1 hydrolysis assays are performed as described above for […], but using phospholipids labelled at the sn-1 substituent, e.g. 1-[^14C]-palmitoyl-2-arachidonyl-sn-glycero-3-phophocholine.

[2] = biological target: T1, calcium independent cytosolic phospholipase A2/B; assay: Liposome assay (Example 3A); format: biochemical, Chinese hamster; settings: assay of Example 3A (liposome)
Description: as §1, with “The reaction was incubated for 30 minutes at 37° C. and quenched by the addition of two volumes of heptane:isopropanol:0.5M sulfuric acid (105:20:1 v/v).” left out
Variations on this assay replace EDTA and EGTA with 10 mM CaCl2.

cPLA2 = biological target: T2, cPLA2 (Homo sapiens, UniProt P47712); settings: comparison enzyme; cited from earlier work
T2 sequence (P47712 1-749): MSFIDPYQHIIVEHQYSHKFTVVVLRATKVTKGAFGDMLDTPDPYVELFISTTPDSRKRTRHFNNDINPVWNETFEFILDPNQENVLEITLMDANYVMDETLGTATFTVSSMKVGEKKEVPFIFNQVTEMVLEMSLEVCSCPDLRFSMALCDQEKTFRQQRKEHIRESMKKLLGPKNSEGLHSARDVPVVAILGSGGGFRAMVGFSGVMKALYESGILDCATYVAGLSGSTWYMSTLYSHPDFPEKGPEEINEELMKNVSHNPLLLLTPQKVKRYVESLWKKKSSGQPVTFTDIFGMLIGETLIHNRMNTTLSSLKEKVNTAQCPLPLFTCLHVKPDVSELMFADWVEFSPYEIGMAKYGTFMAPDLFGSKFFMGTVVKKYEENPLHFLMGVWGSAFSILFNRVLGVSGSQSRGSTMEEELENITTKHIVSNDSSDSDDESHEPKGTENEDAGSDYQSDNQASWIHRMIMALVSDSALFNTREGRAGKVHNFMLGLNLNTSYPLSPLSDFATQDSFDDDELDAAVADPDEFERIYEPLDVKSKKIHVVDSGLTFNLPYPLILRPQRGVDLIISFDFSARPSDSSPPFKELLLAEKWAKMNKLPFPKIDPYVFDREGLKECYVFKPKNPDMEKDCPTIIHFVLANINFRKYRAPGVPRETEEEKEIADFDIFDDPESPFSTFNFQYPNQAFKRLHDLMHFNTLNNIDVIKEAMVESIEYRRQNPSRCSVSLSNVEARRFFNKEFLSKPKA

## C[C@H](CCC(=O)NCCC[N+](C)(C)CCCS(=O)(=O)[O-])[C@H]1CC[C@H]2[C@@H]3[C@H](O)C[C@@H]4C[C@H](O)CC[C@]4(C)[C@H]3C[C@H](O)[C@]12C [CHAPS]
[1]
  inactivation of the enzyme by detergents: inactivated

## Nc1ncnc2c1ncn2[C@@H]1O[C@H](COP(=O)(O)OP(=O)(O)OP(=O)(O)O)[C@@H](O)[C@H]1O [adenosine triphosphate]
[2]
  effect on enzyme activity: not stimulated

## [Ca+2] [calcium]
[1]; in all assays
  effect on enzyme activity: suppressed

## CCCCCCCCO[C@@H]1O[C@H](CO)[C@@H](O)[C@H](O)[C@H]1O [octyl glucoside]
[1]
  inactivation of the enzyme by detergents: inactivated

## NC(N)=O [urea]
[1]; high concentration denaturants
  denaturant concentration that inactivates the enzyme: above 3 M

## triton X-100
[2]
  effect on enzyme activity: suppressed

B1: calcium independent phospholipase: 86 kD calcium independent cytosolic phospholipase enzyme purified from the cytosol of CHO cells, SEQ ID NO:2 (protein)
chain: MQFFGRLVNTLSSVTNLFSNPFRVKEISVADYTSHERVREEGQLILFQNASNRTWDCILVSPRNPHSGFRLFQLESEADALVNFQQFSSQLPPFYESSVQVLHVEVLQHLSDLIRSHPSWTVTHLAVELGIRECFHHSRIISCANSTENEEGCTPLHLACRKGDSEILVELVQYCHAQMDVTDNKGETAFHYAVQGDNSQVLQLLGKNASAGLNQVNKQGLTPLHLACQMGKQEMVRVLLLCNARCNVMGPSGFPIHTAMKFSQKGCAEMIISMDSSQIHSKDPRYGASPLHWAKNAEMARMLLKRGCDVDSTSAAGNTALHVAVMRNRFDCVMVLLTYGANAGTPGEHGNTPLHLAISKDNMEMIKALIVFGAEVDTPNDFGETPAFMASKISKQLQDLMPISRARKPAFILSSMRDEKRIHDHLLCLDGGGVKGLVIIQLLIAIEKASGVATKDLFDWVAGTSTGGILALAILHSKSMAYMRGVYFRMKDEVFRGSRPYESGPLEEFLKREFGEHTKMTDVKKPKVMLTGTLSDRQPAELHLFRNYDAPEVIREPRFNQNINLKPPTQPADQLVWRAARSSGAAPTYFRPNGRFLDGGLLANNPTLDAMTEIHEYNQDMIRKGQGNKVKKLSIVVSLGTGRSPQVPVTCVDVFRPSNPWELAKTVFGAKELGKMVVDCCTDPDGRAVDRARAWSEMVGIQYFRLNPQLGSDIMLDEVNDAVLVNALWETEVYIYEHREEFQKLVQMLLSP
[1]
  pH optimum: 6
[1]; PAPC with either palmitoyl or arachidonyl labelled with 14C
  initial rate of hydrolysis, sn-2 position higher than sn-1: 2-3 fold

B2: cPLA2: 110 kD calcium dependent cytosolic phospholipase A2 of U.S. Pat. No. 5,322,776 (protein, UniProt P47712 1-749, looked up)
Cytosolic phospholipase A2: MSFIDPYQHIIVEHQYSHKFTVVVLRATKVTKGAFGDMLDTPDPYVELFISTTPDSRKRTRHFNNDINPVWNETFEFILDPNQENVLEITLMDANYVMDETLGTATFTVSSMKVGEKKEVPFIFNQVTEMVLEMSLEVCSCPDLRFSMALCDQEKTFRQQRKEHIRESMKKLLGPKNSEGLHSARDVPVVAILGSGGGFRAMVGFSGVMKALYESGILDCATYVAGLSGSTWYMSTLYSHPDFPEKGPEEINEELMKNVSHNPLLLLTPQKVKRYVESLWKKKSSGQPVTFTDIFGMLIGETLIHNRMNTTLSSLKEKVNTAQCPLPLFTCLHVKPDVSELMFADWVEFSPYEIGMAKYGTFMAPDLFGSKFFMGTVVKKYEENPLHFLMGVWGSAFSILFNRVLGVSGSQSRGSTMEEELENITTKHIVSNDSSDSDDESHEPKGTENEDAGSDYQSDNQASWIHRMIMALVSDSALFNTREGRAGKVHNFMLGLNLNTSYPLSPLSDFATQDSFDDDELDAAVADPDEFERIYEPLDVKSKKIHVVDSGLTFNLPYPLILRPQRGVDLIISFDFSARPSDSSPPFKELLLAEKWAKMNKLPFPKIDPYVFDREGLKECYVFKPKNPDMEKDCPTIIHFVLANINFRKYRAPGVPRETEEEKEIADFDIFDDPESPFSTFNFQYPNQAFKRLHDLMHFNTLNNIDVIKEAMVESIEYRRQNPSRCSVSLSNVEARRFFNKEFLSKPKA
cPLA2
  pH optimum: greater than 8

From patent US6645736B2, “Calcium independent cytosolic phospholipase A2/B enzymes” (Genetics Institute, LLC, priority 1994, dated 2003)
